Measured values as given in patent US20250176599A1, “FLAVOR COMPOSITION AND FOOD AND BEVERAGE” (TAKASAGO INTERNATIONAL CORPORATION, priority 2021, published 2025).

Columns and labels:
[1] = Overall conclusion of the sensory evaluation across aqueous solutions I to VI
Procedure, shortened: (§1)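 Nootkatone was added to ion-exchanged water spiked with the degradation component, and eight experienced panelists scored the samples. Off-flavor was rated relative to anchors: unmasked spiked solution = 4, plain water = 0. Masking-component intensity was rated absolutely on a 0–4 scale.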

[2] = Sensory evaluation of aqueous solution IV containing 1,5-octadien-3-one 100 ppt: off-flavor intensity and masking component intensity
Procedure, shortened: as §1

[3] = Sensory evaluation of aqueous solution II containing (E)-2-octenal 10 ppb: off-flavor intensity and masking component intensity
Procedure, shortened: as §1

[4] = Sensory evaluation of aqueous solution III containing 1-octen-3-one 1 ppb: off-flavor intensity and masking component intensity
Procedure, shortened: as §1

[5] = Sensory evaluation of aqueous solution V containing 1-octen-3-ol 10 ppb: off-flavor intensity and masking component intensity
Procedure, shortened: as §1

[6] = Sensory evaluation of aqueous solution I containing (E)-2-nonenal 1 ppb: off-flavor intensity and masking component intensity
Procedure, shortened: as §1

[7] = Sensory evaluation of aqueous solution VI containing 1,5-octadien-3-ol 10 ppb: off-flavor intensity and masking component intensity
Procedure, shortened: as §1

[8] = aqueous solution IV, 1 ppb added, average panel score
[9] = aqueous solution IV, 1 ppm added, average panel score
[10] = aqueous solution IV, 5 ppm added, average panel score
[11] = aqueous solution IV, 10 ppb added, average panel score
[12] = aqueous solution IV, 10 ppm added, average panel score
[13] = aqueous solution IV, 10 ppt added, average panel score
[14] = aqueous solution IV, 100 ppb added, average panel score
[15] = aqueous solution IV, 100 ppt added, average panel score
[16] = 1 ppb added, average panel score
[17] = 1 ppm added, average panel score
[18] = 5 ppm added, average panel score
[19] = 10 ppb added, average panel score
[20] = 10 ppm added, average panel score
[21] = 10 ppt added, average panel score
[22] = 100 ppb added, average panel score
[23] = 100 ppt added, average panel score
[24] = aqueous solution VI, 1 ppb added, average panel score
[25] = aqueous solution VI, 1 ppm added, average panel score
[26] = aqueous solution VI, 5 ppm added, average panel score
[27] = aqueous solution VI, 10 ppb added, average panel score
[28] = aqueous solution VI, 10 ppm added, average panel score
[29] = aqueous solution VI, 10 ppt added, average panel score
[30] = aqueous solution VI, 100 ppb added, average panel score
[31] = aqueous solution VI, 100 ppt added, average panel score

C=C(C)[C@@H]1CCC2=CC(=O)C[C@@H](C)[C@]2(C)C1 [Nootkatone, nootkatone]
concentration that masks the off-flavor and does not affect the flavor of the food and/or beverage itself, lower limit [1]: ≥ 100 ppt | concentration that masks the off-flavor and does not affect the flavor of the food and/or beverage itself, upper limit [1]: ≤ 1 ppm | Off-Flavor Intensity ([2]; 1 ppb added, aqueous solution IV, 1,5-octadien-3-one 100 ppt, average score 0-4): 3.1 points | Off-Flavor Intensity ([2]; 1 ppm added, aqueous solution IV, 1,5-octadien-3-one 100 ppt, average score 0-4): 2.0 points | Off-Flavor Intensity ([2]; 5 ppm added, aqueous solution IV, 1,5-octadien-3-one 100 ppt, average score 0-4): 1.3 points | Off-Flavor Intensity ([2]; 10 ppb added, aqueous solution IV, 1,5-octadien-3-one 100 ppt, average score 0-4): 2.9 points | Off-Flavor Intensity ([2]; 10 ppm added, aqueous solution IV, 1,5-octadien-3-one 100 ppt, average score 0-4): 0.9 points | Off-Flavor Intensity ([2]; 10 ppt added, aqueous solution IV, 1,5-octadien-3-one 100 ppt, average score 0-4): 3.6 points | Off-Flavor Intensity ([2]; 100 ppb added, aqueous solution IV, 1,5-octadien-3-one 100 ppt, average score 0-4): 2.4 points | Off-Flavor Intensity ([2]; 100 ppt added, aqueous solution IV, 1,5-octadien-3-one 100 ppt, average score 0-4): 3.5 points | Off-Flavor Intensity ([3]; 1 ppb added, (E)-2-octenal 10 ppb, average score 0-4): 2.6 points | Off-Flavor Intensity ([3]; 1 ppm added, (E)-2-octenal 10 ppb, average score 0-4): 1.5 points | Off-Flavor Intensity ([3]; 5 ppm added, (E)-2-octenal 10 ppb, average score 0-4): 0.6 points | Off-Flavor Intensity ([3]; 10 ppb added, (E)-2-octenal 10 ppb, average score 0-4): 2.5 points | Off-Flavor Intensity ([3]; 10 ppm added, (E)-2-octenal 10 ppb, average score 0-4): 0.4 points | Off-Flavor Intensity ([3]; 10 ppt added, (E)-2-octenal 10 ppb, average score 0-4): 3.5 points | Off-Flavor Intensity ([3]; 100 ppb added, (E)-2-octenal 10 ppb, average score 0-4): 1.9 points | Off-Flavor Intensity ([3]; 100 ppt added, (E)-2-octenal 10 ppb, average score 0-4): 3.1 points | Off-Flavor Intensity ([4]; 1 ppb added, 1-octen-3-one 1 ppb, average score 0-4): 2.6 points | Off-Flavor Intensity ([4]; 1 ppm added, 1-octen-3-one 1 ppb, average score 0-4): 1.6 points | Off-Flavor Intensity ([4]; 5 ppm added, 1-octen-3-one 1 ppb, average score 0-4): 1.1 points | Off-Flavor Intensity ([4]; 10 ppb added, 1-octen-3-one 1 ppb, average score 0-4): 2.3 points | Off-Flavor Intensity ([4]; 10 ppm added, 1-octen-3-one 1 ppb, average score 0-4): 0.9 points | Off-Flavor Intensity ([4]; 10 ppt added, 1-octen-3-one 1 ppb, average score 0-4): 3.4 points | Off-Flavor Intensity ([4]; 100 ppb added, 1-octen-3-one 1 ppb, average score 0-4): 2.1 points | Off-Flavor Intensity ([4]; 100 ppt added, 1-octen-3-one 1 ppb, average score 0-4): 3.1 points | Off-Flavor Intensity ([5]; 1 ppb added, 1-octen-3-ol 10 ppb, average score 0-4): 2.5 points | Off-Flavor Intensity ([5]; 1 ppm added, 1-octen-3-ol 10 ppb, average score 0-4): 1.5 points | Off-Flavor Intensity ([5]; 5 ppm added, 1-octen-3-ol 10 ppb, average score 0-4): 0.9 points | Off-Flavor Intensity ([5]; 10 ppb added, 1-octen-3-ol 10 ppb, average score 0-4): 2.5 points | Off-Flavor Intensity ([5]; 10 ppm added, 1-octen-3-ol 10 ppb, average score 0-4): 0.5 points | Off-Flavor Intensity ([5]; 10 ppt added, 1-octen-3-ol 10 ppb, average score 0-4): 3.4 points | Off-Flavor Intensity ([5]; 100 ppb added, 1-octen-3-ol 10 ppb, average score 0-4): 1.8 points | Off-Flavor Intensity ([5]; 100 ppt added, 1-octen-3-ol 10 ppb, average score 0-4): 2.9 points | Off-Flavor Intensity ([6]; 1 ppb added, (E)-2-nonenal 1 ppb, average score 0-4): 2.8 points | Off-Flavor Intensity ([6]; 1 ppm added, (E)-2-nonenal 1 ppb, average score 0-4): 1.8 points | Off-Flavor Intensity ([6]; 5 ppm added, (E)-2-nonenal 1 ppb, average score 0-4): 1.1 points | Off-Flavor Intensity ([6]; 10 ppb added, (E)-2-nonenal 1 ppb, average score 0-4): 2.4 points | Off-Flavor Intensity ([6]; 10 ppm added, (E)-2-nonenal 1 ppb, average score 0-4): 0.8 points | Off-Flavor Intensity ([6]; 10 ppt added, (E)-2-nonenal 1 ppb, average score 0-4): 3.4 points | Off-Flavor Intensity ([6]; 100 ppb added, (E)-2-nonenal 1 ppb, average score 0-4): 2.1 points | Off-Flavor Intensity ([6]; 100 ppt added, (E)-2-nonenal 1 ppb, average score 0-4): 3.3 points | Off-Flavor Intensity ([7]; 1 ppb added, aqueous solution VI, 1,5-octadien-3-ol 10 ppb, average score 0-4): 2.5 points | Off-Flavor Intensity ([7]; 1 ppm added, aqueous solution VI, 1,5-octadien-3-ol 10 ppb, average score 0-4): 1.1 points | Off-Flavor Intensity ([7]; 5 ppm added, aqueous solution VI, 1,5-octadien-3-ol 10 ppb, average score 0-4): 0.6 points | Off-Flavor Intensity ([7]; 10 ppb added, aqueous solution VI, 1,5-octadien-3-ol 10 ppb, average score 0-4): 2.1 points | Off-Flavor Intensity ([7]; 10 ppm added, aqueous solution VI, 1,5-octadien-3-ol 10 ppb, average score 0-4): 0.6 points | Off-Flavor Intensity ([7]; 10 ppt added, aqueous solution VI, 1,5-octadien-3-ol 10 ppb, average score 0-4): 3.1 points | Off-Flavor Intensity ([7]; 100 ppb added, aqueous solution VI, 1,5-octadien-3-ol 10 ppb, average score 0-4): 1.5 points | Off-Flavor Intensity ([7]; 100 ppt added, aqueous solution VI, 1,5-octadien-3-ol 10 ppb, average score 0-4): 3.0 points

C=CC(C)(O)CCC=C(C)CCC=C(C)C (stereo not shown) [nerolidol]
concentration that masks the off-flavor and does not affect the flavor of the food and/or beverage itself, lower limit [1]: ≥ 100 ppt | concentration that masks the off-flavor and does not affect the flavor of the food and/or beverage itself, upper limit [1]: ≤ 5 ppm | Masking Component Intensity [2, 8]: 0.4 | Off-Flavor Intensity [2, 8]: 3.1 | Masking Component Intensity [2, 9]: 2.0 | Off-Flavor Intensity [2, 9]: 2.3 | Masking Component Intensity [2, 10]: 3.0 | Off-Flavor Intensity [2, 10]: 1.9 | Masking Component Intensity [2, 11]: 0.6 | Off-Flavor Intensity [2, 11]: 3.0 | Masking Component Intensity [2, 12]: 3.6 | Off-Flavor Intensity [2, 12]: 1.4 | Masking Component Intensity [2, 13]: 0.1 | Off-Flavor Intensity [2, 13]: 3.6 | Masking Component Intensity [2, 14]: 1.3 | Off-Flavor Intensity [2, 14]: 2.6 | Masking Component Intensity [2, 15]: 0.1 | Off-Flavor Intensity [2, 15]: 3.4 | Masking Component Intensity [3, 16]: 0.4 | Off-Flavor Intensity [3, 16]: 2.6 | Masking Component Intensity [3, 17]: 2.4 | Off-Flavor Intensity [3, 17]: 1.5 | Masking Component Intensity [3, 18]: 3.4 | Off-Flavor Intensity [3, 18]: 0.8 | Masking Component Intensity [3, 19]: 0.8 | Off-Flavor Intensity [3, 19]: 2.3 | Masking Component Intensity [3, 20]: 3.8 | Off-Flavor Intensity [3, 20]: 0.5 | Masking Component Intensity [3, 21]: 0.0 | Off-Flavor Intensity [3, 21]: 3.4 | Masking Component Intensity [3, 22]: 1.5 | Off-Flavor Intensity [3, 22]: 1.9 | Masking Component Intensity [3, 23]: 0.1 | Off-Flavor Intensity [3, 23]: 3.0 | Masking Component Intensity [4, 16]: 0.4 | Off-Flavor Intensity [4, 16]: 3.0 | Masking Component Intensity [4, 17]: 2.1 | Off-Flavor Intensity [4, 17]: 1.5 | Masking Component Intensity [4, 18]: 3.4 | Off-Flavor Intensity [4, 18]: 0.9 | Masking Component Intensity [4, 19]: 0.8 | Off-Flavor Intensity [4, 19]: 2.5 | Masking Component Intensity [4, 20]: 3.6 | Off-Flavor Intensity [4, 20]: 0.4 | Masking Component Intensity [4, 21]: 0.1 | Off-Flavor Intensity [4, 21]: 3.6 | Masking Component Intensity [4, 22]: 1.5 | Off-Flavor Intensity [4, 22]: 2.0 | Masking Component Intensity [4, 23]: 0.3 | Off-Flavor Intensity [4, 23]: 3.4 | Masking Component Intensity [5, 16]: 0.6 | Off-Flavor Intensity [5, 16]: 2.6 | Masking Component Intensity [5, 17]: 2.6 | Off-Flavor Intensity [5, 17]: 1.6 | Masking Component Intensity [5, 18]: 3.5 | Off-Flavor Intensity [5, 18]: 1.0 | Masking Component Intensity [5, 19]: 0.9 | Off-Flavor Intensity [5, 19]: 2.5 | Masking Component Intensity [5, 20]: 3.9 | Off-Flavor Intensity [5, 20]: 0.6 | Masking Component Intensity [5, 21]: 0.1 | Off-Flavor Intensity [5, 21]: 3.6 | Masking Component Intensity [5, 22]: 1.4 | Off-Flavor Intensity [5, 22]: 2.1 | Masking Component Intensity [5, 23]: 0.3 | Off-Flavor Intensity [5, 23]: 3.1 | Masking Component Intensity [6, 16]: 0.4 | Off-Flavor Intensity [6, 16]: 2.8 | Masking Component Intensity [6, 17]: 2.0 | Off-Flavor Intensity [6, 17]: 1.6 | Masking Component Intensity [6, 18]: 2.9 | Off-Flavor Intensity [6, 18]: 1.0 | Masking Component Intensity [6, 19]: 0.6 | Off-Flavor Intensity [6, 19]: 2.4 | Masking Component Intensity [6, 20]: 3.8 | Off-Flavor Intensity [6, 20]: 0.8 | Masking Component Intensity [6, 21]: 0.1 | Off-Flavor Intensity [6, 21]: 3.6 | Masking Component Intensity [6, 22]: 1.1 | Off-Flavor Intensity [6, 22]: 2.0 | Masking Component Intensity [6, 23]: 0.3 | Off-Flavor Intensity [6, 23]: 3.3 | Masking Component Intensity [7, 24]: 0.3 | Off-Flavor Intensity [7, 24]: 3.1 | Masking Component Intensity [7, 25]: 2.5 | Off-Flavor Intensity [7, 25]: 1.8 | Masking Component Intensity [7, 26]: 3.5 | Off-Flavor Intensity [7, 26]: 1.1 | Masking Component Intensity [7, 27]: 0.8 | Off-Flavor Intensity [7, 27]: 2.4 | Masking Component Intensity [7, 28]: 3.9 | Off-Flavor Intensity [7, 28]: 0.8 | Masking Component Intensity [7, 29]: 0.0 | Off-Flavor Intensity [7, 29]: 3.5 | Masking Component Intensity [7, 30]: 1.3 | Off-Flavor Intensity [7, 30]: 2.1 | Masking Component Intensity [7, 31]: 0.1 | Off-Flavor Intensity [7, 31]: 3.3
